Measurements taken from patent publication US8603806B2, “Materials and methods for cell-based assays” (The Ohio State Universtiy Research Foundation, priority 2005, dated 2013).
Converted amounts (≈) assume the structure as drawn. “Also recorded” adds a separate entry of the source. Like-named read-outs stand apart in the source and are kept apart here.

Legend:
[1] = test system: ES cells; experiment: 3-D cytotoxicity (proliferation) assay, ES-GFP cells in PET scaffolds, low density; format: cell-based; details: for IC50: read-out: 3-D cultures Ig50; for Ig50 in 2-D as times of Ig50 in 3-D: ratio 2-D/3-D
Procedure: For the 3-D cytotoxicity assay, 25000 cells in 25 μl medium were seeded into each PET scaffold. After 6 h incubation to allow cell attachment, 180 μl medium were added to each well and incubated for another 18 h before transferring the seeded matrix to the center of the microbioreactor chamber containing 3 ml of the ES medium on the modified 96-well plate. The plates were then stacked onto a rotational shaker and put into a 37° C. CO2 incubator. The culture fluorescence was measured twice per day with a Cytofluor Series 4000 plate reader. Fluorescence signals from live cells were calculated as the values from the central well of the bioreactor minus the background from the surrounding medium and scaffold.
(§1) With the exponential-phase specific growth rate data, the cytotoxicity of various chemicals can be better evaluated by their Ig50 values defined as the concentration of the chemical causing 50% reduction in the exponential-phase specific cell growth rate.

[2] = test system: ES cells; experiment: 2-D cytotoxicity assay, ES-GFP cells in 96-well plates; format: cell-based; details: concentration causing 50% reduction in exponential-phase specific growth rate, drug added one day after inoculation; for IC50: read-out: 2-D cultures Ig50
Procedure: The 2-D cytotoxicity assay was performed in 96-well plates by inoculating 5000 cells into each well containing 150 μl of ES medium. The drug was added one day after inoculation. Fluorescent signals were measured twice per day in the culture plates. The fluorescence given by live cells was calculated as the signals obtained after replacing culture medium with the same volume of PBS minus the blanks.
as §1

[3] = test system: ES cells; experiment: 3-D high-density ES tissue constructs cytotoxicity; format: cell-based; details: for Extent of cell kill: 3-D high-density, at maximum dose; for Rf (resistance factor): ratio between EC50 and Ig50; for EC50: 3-D high-density cell cultures, 50% of maximum fluorescence reduction, exposure four or six days after seeding
Text: The effects of various drugs on ES cells grown in 3-D after reaching a high cell density (exposure four or six days after seeding the matrices) were studied and the results are shown in FIG. 14. EC50 (the concentration required for obtaining 50% of a maximum effect) is used to evaluate a drug's cytotoxicity effect on a high-density 3-D cell or tissue construct. Here, if the elimination of cells is considered as the maximum effect of a chemical, an EC50 is not always reached. […] For this case, the maximum effects were defined as the fluorescence reduction caused by the saturation concentration (DM and DPH) or a very high dose compared to doses used in 2-D assays (Penicillin G and 5-FU). In addition, it was also noticed that maximal effects changed along with time, so the time point with the largest value of the maximal effects was used for cytotoxicity definition. Rf (resistance factor) is defined as the ratio between EC50 and Ig50.

[4] = test system: HT-29-GFP; experiment: HT-29-GFP proliferation assay, 2-D with cell counting; format: cell-based; details: Homo sapiens, read-out: 2-D with cell counting (Ig50)
Text: (§2) Colon cancer is the third most frequently occurring cancer in the US and causes large numbers of deaths, second only to lung cancer. Treatment of progressed colon cancer involves surgical extraction combining chemotherapy and immunotherapy. The survival rate of colon cancer patients is only 55% due to the low effectiveness of these therapies. […] Butyric acid is a biological response modifier (BRM) and it acts synergistically with 5-FU against colorectal cancers by decreasing thymidine kinase mRNA. As a BRM, it can also increase cell specific productivity at the expense of inhibiting cell growth. […] In this case, the cytotoxicity of a chemical in 3-D cultures was defined as a concentration range of the chemical.

[5] = test system: HT-29-GFP
Text: as §2

[6] = test system: HT-29-GFP; details: for times more resistance in tumor-like structure: compared with the results from 3-D proliferation assays (3-D low density cells); for effectiveness on high density colon cancer cells / time after drug adding at which fluorescence changed: tumor-like constructs
Text: as §2
Gemcitabine is an S-phase specific drug.

[7] = test system: HT-29; experiment: Perfusion culture of HT-29 in microfluidic bioreactor array; format: cell-based, human; details: 2 μg/ml fed continuously from beginning of perfusion; vs control without drug
Procedure: A human colon cancer cell line HT-29 (ATCC: HTB-38™) was maintained in Dulbecco's Modified Eagle's Medium (DMEM, Gibco) supplemented with 10% fetal bovine serum (FBS, Gibco) in a cell culture incubator at 37° C. with 5% CO2. […] Then cells were diluted and seeded in a 96 well plate at around 5 cells per well. One green fluorescent colony was isolated and expanded in the absence of selective pressure geneticin (G-418, Gibco). The stability of the transfected cell line was verified by FACSCalibur (B-D) (>97%) compared to the negative control.
Before cell culture, the PET matrices were cut to small square patches (2.5 mm×3 mm) and then soaked in water and sterilized in an autoclave at 121° C. for 15 min. […] Then each seeded scaffold was transferred gently to a new well on the same 384-well plate, which was followed by fluorescence intensity measurement in the microplate reader at 485 nm excitation and 535 nm emission. The scaffolds with similar fluorescence intensity were selected and transferred to the wells in the middle two rows of the microbioreactor array. […]
Four 10 mL, syringes were autoclaved and filled with the maintenance media, which were then seated on a syringe pump (PHD 2000, Harvard Apparatus). […] Cell proliferation was analyzed twice a day with the specific plate definition scheme in the microplate reader. […]

[8] = test system: embryonic stem cell; details: embryotoxicity test previously reported; cited from earlier work
[9] = test system: embryonic stem cell; details: embryotoxicity test previously reported; cited from earlier work; remark: listed apart in the source
[10] = test system: ES-GFP cells; experiment: Acute cytotoxicity live-cell kinetic assay, 3-D ES-GFP; format: cell-based; details: high density 3-D ES-GFP, 2000 RFU; different doses
Procedure: For the live-cell kinetic assays, acute cellular events can be easily characterized with online continuous fluorescence measurements without human intervention. The 3-D cell-based assay system was thus applied to test the response of ES-GFP cells to a surfactant, Triton X-100 (Sigma Chemical Company, St. Louis, Mo.). ES-GFP cells in the 3-D system were cultured to reach a high density with 2000 RFU fluorescence intensity. After applying different doses of Triton X-100, the culture plate was immediately put into the plate reader (Cytofluor Series 4000) at 37° C., with the cycle number set at 80 and cycle time at 3 min. The mixing time before each reading was 10 seconds. […] In general, increasing the surfactant concentration in the medium increased cell death, which followed a first order kinetics as indicated by the linear semilogarithmic plot (FIG. 10B). Triton X-100 is a non-ionic detergent commonly used to solubilize membrane proteins. The specific death rate kd at each Triton X-100 concentration can be estimated from the negative slope of the semi-log plots. […] The loss in the fluorescence signal for the control experiment without the surfactant was negligible and the slight decrease could be attributed to a slow increase in the medium pH outside the CO2 incubator. GFP fluorescence is marginally affected by the solution pH when it is in the neutral pH range.

[11] = test system: ES-GFP cells; experiment: Effect of fibronectin coating of PET matrix on ES-GFP cell growth; format: cell-based
Procedure: Similarly, ES-GFP cells were used to study the effects of fibronectin coating of the PET matrix on cell growth. Fibronectin is involved in many cellular processes, one of which is to serve as a general cell adhesion molecule to help cells anchor onto proteoglycan or collagen substrates. Fibronectin is a commonly used extracellular matrix protein to enhance cell adhesion on the tissue scaffold. PET matrices were soaked in 10 μg/ml fibronectin (Sigma Chemical Company, St. Louis, Mo.) for 12 hours before use. The fibronectin-coated matrices were then placed in the growth medium and seeded with ES-GFP cells from the top of the scaffolds. […] Also, cells cultured in the fibronectin-coated matrix reached a maximum fluorescence intensity of 4000 RFU that was ˜2.5 times of that without fibronectin coating at 128 h. […] Cell spreading can also stimulate cell proliferation and contributes to uniform cell distribution in the 3-D matrix, which in turn allowed more light emission from the matrix. It is noted that cells developed different morphologies in these two matrices, with large aggregates formed in the matrix without fibronectin coating (FIG. 9D). The formation of large cell aggregates could add additional mass transfer limitation and further reduce cell growth. The adhesion of cells to PET fibers is important to determine the cell growth in the 3-D matrix.

[12] = concentration causing 50% reduction in exponential-phase specific growth rate, drug added one day after seeding

Molecule: O=c1[nH]cc(F)c(=O)[nH]1 [5-FU, 5-fluorouracil]
- IC50 [1, 12]: 0.035 µg/mL (≈ 0.269 µM)
- IC50 [2]: 0.045 µg/mL (≈ 0.346 µM)
- effect on ES tissue constructs ([3]; 100 μg/ml, 3-D high density): no significant effect
- Extent of cell kill [3]: 20%
- Rf (resistance factor) [3]: >1000
- IC50 ([4]; HT-29-GFP 2-D): < 0.26 µg/mL
- 2-D with fluorescence, cytotoxicity concentration ([5]; human): 0.052 to 0.26 µg/mL
- 3-D with fluorescence, cytotoxicity concentration ([5]; human): 0.26 to 1.3 µg/mL
- Tumor-like response assays, cytotoxicity concentration ([6]; human): 10 to 100 µg/mL
- effect on HT-29 proliferation in perfusion culture [7]: significantly reduced cell proliferation; also recorded: significantly inhibited
- ZEBET IC50 [8]: 0.09 µg/mL
- ECVAM IC50 [9]: 0.065 µg/mL

Molecule: C[C@@H]1C[C@H]2[C@@H]3CCC4=CC(=O)C=C[C@]4(C)[C@@]3(F)[C@@H](O)C[C@]2(C)[C@@]1(O)C(=O)CO [DM, dexamethasone]
- IC50 [1, 12]: 11.5 µg/mL (≈ 29.3 µM)
- Ig50 in 2-D as times of Ig50 in 3-D [1]: 3 times
- IC50 [2]: 32 µg/mL (≈ 81.5 µM)
- Extent of cell kill [3]: 80.9%
- EC50 ([3]; 144 h, read-out: EC50): 65 µg/mL (≈ 166 µM)
- Rf (resistance factor) [3]: 5.7

Molecule: O=C1NC(=O)C(c2ccccc2)(c2ccccc2)N1 [DPH, diphenylhydantoin]
- IC50 [1, 12]: 39 µg/mL (≈ 155 µM)
- IC50 [2]: 30 µg/mL (≈ 119 µM)
- Extent of cell kill [3]: 52.2%
- EC50 ([3]; 144 h, read-out: EC50): 600 µg/mL (≈ 2380 µM)
- Rf (resistance factor) [3]: 15.4

Molecule: Nc1ccn([C@@H]2O[C@H](CO)[C@@H](O)C2(F)F)c(=O)n1 [Gemcitabine, gemcitabine]
- IC50 ([4]; HT-29-GFP 2-D): 5e-06 mM
- 2-D with fluorescence, cytotoxicity concentration ([5]; human): 0.625 µM
- 3-D with fluorescence, cytotoxicity concentration ([5]; human): 0.001 to 0.005 µM
- times more resistance in tumor-like structure [6]: (more than 1000 times
- Tumor-like response assays, cytotoxicity concentration ([6]; human): >1000 µM
- effectiveness on high density colon cancer cells [6]: non-effective)
- effectiveness on high density colon cancer cells ([6]; listed as gemcitabine): totally resistant

Molecule: CC1(C)S[C@@H]2[C@H](NC(=O)Cc3ccccc3)C(=O)N2[C@H]1C(=O)O [Penicillin G, penicillin G]
- 3-D cultures Ig50 [1, 12]: 750 µg/mL
- Ig50 in 2-D as times of Ig50 in 3-D [1]: 6 times
- 2-D cultures Ig50 [2]: 4500 µg/mL
- EC50 [3]: 23000 µg/mL (≈ 68800 µM)
- Extent of cell kill [3]: 62.3%
- Rf (resistance factor) [3]: 30.7
- ZEBET IC50 [8]: 2100 µg/mL
- ECVAM IC50 [9]: 2000 µg/mL

Molecule: CCCC(=O)[O-].[Na+] [Sodium butyrate, sodium butyrate]
- IC50 [4]: 2 mM
- 3-D with fluorescence, cytotoxicity concentration ([5]; 3-D low density, lowest concentration causing significant difference of fluorescent kinetics vs control): 2000 to 8000 µM
- 2-D with fluorescence, cytotoxicity concentration ([5]; lowest concentration causing significant difference of fluorescent kinetics vs control): 8000 to 32000 µM
- times more resistance in tumor-like structure [6]: (about 10 times
- times more resistance in tumor-like structure ([6]; listed as sodium butyrate): 10 times
- Tumor-like response assays, cytotoxicity concentration ([6]; drug added at high density): 10000 to 100000 µM
- time after drug adding at which fluorescence changed [6]: changed one day
- time after drug adding at which fluorescence changed ([6]; listed as sodium butyrate): one

Molecule: Triton X-100
- acute cellular response (loss in culture fluorescence) [10]: caused an acute cell death

Molecule: fibronectin
- specific growth rate ([11]; PET matrices soaked in 10 μg/ml fibronectin, without coating 0.0335): 0.0458 h⁻¹
- maximum fluorescence intensity relative to that without fibronectin coating ([11]; at 128 h): ~2.5 times
- maximum fluorescence intensity ([11]; fibronectin-coated matrix, 128 h): 4000 RFU
- doubling time ([11]; with fibronectin coating, without coating 20.7): 15.1 h
- enhancement of specific growth rate ([11]; with vs without fibronectin coating): 37%
